Consider two molecules from patent US5488060A, “Substituted thiadiazoles, compositions containing them and their use as antimicrobial and marine antifouling agents” (The Dow Chemical Company, priority 1994, dated 1996).

In brackets after ≈: the same amount, converted by molar mass. Where two headings read alike, the source gives them in different places.

Common to all, as to assay type: cell-based
Assay [1] deals with Bacillus subtilis (Bs). As to the kind of experiment: Minimum inhibitory concentration (MIC) in nutrient agar, Bacillus subtilis. The procedure: (§1) The antimicrobial activity of the compounds of the present invention is set forth as the minimum inhibitory concentration (MIC) for the active compounds and is determined for nine (9) bacteria, using nutrient agar, and seven (7) yeast and fungi, using malt yeast agar. This determination is conducted using a one percent solution of the test compound prepared in a mixture of acetone and water.
(§2) Nutrient agar is prepared at pH 6.8, representing a neutral medium, and at pH 8.2, representing an alkaline medium. The nutrient agars are prepared by adding 23 g of nutrient agar to one-liter of deionized water. In addition, the alkaline medium is prepared by adjusting a 0.04M solution of N-[tris-(hydroxymethyl)methyl]glycine buffered deionized water with concentrated sodium hydroxide to a pH of 8.5.
(§3) The test tubes containing the agar are cooled in a water bath until the temperature of the agar is 48° C. Then, an appropriate amount of the one percent solution of the test compound is added (except in the controls where no compound is added) to the respective test tubes so that the final concentrations are 500, […], 100, 50, 25, 10, 5, 2.5, 1.0 and zero parts per million of the test compound in the agar, thus having a known concentration of test compound dispersed therein. The contents of the test tubes are then transferred to respective petri plates. After drying for 24 hours, the petri plates containing nutrient agar are inoculated with bacteria and those containing malt yeast agar are inoculated with yeast and fungi.
(§4) The inoculation with bacteria is accomplished by using the following procedure. Twenty-four hour-cultures of each of the bacteria are prepared by incubating the respective bacteria in tubes containing nutrient broth for 24 hours at 30° C. in a shaker. Dilutions of each of the 24 hour-cultures are made so that nine separate suspensions (one for each of the nine test bacteria) are made, each containing 10^8 colony forming units (CFU) per mL of suspension of a particular bacteria. Aliquots of 0.3 mL of each of the bacterial suspensions are used to fill the individual wells of Steer's Replicator. For each microbial suspension, 0.3 mL was used to fill three wells (i.e., three wells of 0.3 mL each) so that for the nine different bacteria, 27 wells are filled. The Steer's Replicator is then used to inoculate both the neutral and alkaline pH nutrient agar petri plates.
(§5) The inoculated petri plates are incubated at 30° C. for 48 hours and then read to determine if the test compound which is incorporated into the agar prevented growth of the respective bacteria.

For assay [2], the system named is Enterobacter aerogenes (Ea). Put plainly: Minimum inhibitory concentration (MIC) in nutrient agar, Enterobacter aerogenes. The following applies: Klebsiella aerogenes. The procedure: as §1, §2, §3, §4, §5
The test system of assay [3] is Escherichia coli (Ec). As to the kind of experiment: Minimum inhibitory concentration (MIC) in nutrient agar, Escherichia coli. The procedure: as §1, §2, §3, §4, §5
Assay [4] relates to Klebsiella pneumoniae (Kp). Put plainly: Minimum inhibitory concentration (MIC) in nutrient agar, Klebsiella pneumoniae. How it is done: as §1, §2, §3, §4, §5
The subject of assay [5] is Proteus vulgaris (Pv). Put plainly: Minimum inhibitory concentration (MIC) in nutrient agar, Proteus vulgaris. How it is done: as §1, §2, §3, §4, §5
In assay [6] the test system is Pseudomonas aeruginosa (PRD-10). As to the kind of experiment: Minimum inhibitory concentration (MIC) in nutrient agar, Pseudomonas aeruginosa PRD-10. The following applies: 48 h. How it is done:
as §1, §2, §3, §4, §5

For assay [7], the system named is Pseudomonas aeruginosa (Pa). As to the kind of experiment: Minimum inhibitory concentration (MIC) in nutrient agar, Pseudomonas aeruginosa. The procedure: as §1, §2, §3, §4, §5
The test system of assay [8] is Salmonella choleraesuis (Se). Put plainly: Minimum inhibitory concentration (MIC) in nutrient agar, Salmonella choleraesuis. Particulars: Salmonella enterica. The procedure: as §1, §2, §3, §4, §5
The test system of assay [9] is Staphylococcus aureus (Sa). As to the kind of experiment: Minimum inhibitory concentration (MIC) in nutrient agar, Staphylococcus aureus. How it is done:
as §1, §2, §3, §4, §5

Assay [10] has as its system Aspergillus niger (An). As to the kind of experiment: Minimum inhibitory concentration (MIC) in malt yeast agar, Aspergillus niger. The following applies: pH 5.5; malt yeast agar, 30° C., 72 hours for fungi; read-out: Minimum Inhibitory Concentration, An. How it is done: as §1
(§6) Malt yeast agar is prepared at pH 5.5 by adding 3 g yeast extract and 45 g malt agar per liter of deionized water. The specific agar is dispensed in 30 mL aliquots into 25×200 mm test tubes, capped and autoclaved for 15 minutes at 115° C.
as §3
(§7) The inoculation with the yeast and fungi is accomplished as follows. Cultures of yeast and fungi are incubated for seven days on malt yeast agar at 30° C. These cultures are used to prepare suspensions by the following procedure. A suspension of each organism is prepared by adding 10 mL of sterile saline and 10 microliters of octylphenoxy polyethoxy ethanol to the agar slant of yeast or fungi. The sterile saline/octylphenoxy potyethoxy ethanol solution is then agitated with a sterile swab to suspend the microorganism grown on the slant. Each resulting suspension is diluted into sterile saline (1 part suspension: 9 parts sterile saline). Aliquots of these dilutions are placed in individual wells of Steer's Replicator and petri plates inoculated as previously described. The petri plates are incubated at 30° C. and read after 48 hours for yeast and 72 hours for fungi.

For assay [11], the system named is Candida albicans (Ca). As to the kind of experiment: Minimum inhibitory concentration (MIC) in malt yeast agar, Candida albicans. The procedure:
as §1, §6, §3, §7

For assay [12], the system named is Saccharomyces cerevisiae (Sc). Put plainly: Minimum inhibitory concentration (MIC) in malt yeast agar, Saccharomyces cerevisiae. Particulars: pH 5.5, malt yeast agar, 30° C., 48 hours for yeast, read-out: Minimum Inhibitory Concentration, SC. The procedure:
as §1, §6, §3, §7

Assay [13] has as its system Aureobasidium pullulan (Ap). As to the kind of experiment: Minimum inhibitory concentration (MIC) in malt yeast agar, Aureobasidium pullulan. Particulars: pH 5.5, read-out: Minimum Inhibitory Concentration, Ap. How it is done: as §1, §6, §3, §7
The subject of assay [14] is Fusarium oxysporum (Fo). Put plainly: Minimum inhibitory concentration (MIC) in malt yeast agar, Fusarium oxysporum. How it is done: as §1, §6, §3, §7
Assay [15] relates to Trichoderma viride (Tv). As to the kind of experiment: Minimum inhibitory concentration (MIC) in malt yeast agar, Trichoderma viride. Particulars: pH 5.5; malt yeast agar, 30° C., 72 hours for fungi; read-out: Minimum Inhibitory Concentration, Tv. How it is done:
as §1, §6, §3, §7

The mark [16] stands for this setting: 48 h, pH 8.2, read-out: Minimum Inhibitory Concentration, Ea.
The mark [17] stands for this setting: 48 h, pH 8.2, read-out: Minimum Inhibitory Concentration, Ec.
The mark [18] stands for this setting: 48 h, pH 8.2, read-out: Minimum Inhibitory Concentration, Kp.
[19] abbreviates: pH 6.8, nutrient agar, 30° C., 48 hours, read-out: Minimum Inhibitory Concentration, Kp.
Where [20] appears, read: 48 h, pH 8.2, read-out: Minimum Inhibitory Concentration, Pv.
[21] abbreviates: pH 6.8, read-out: Minimum Inhibitory Concentration, PRD.
Where [22] appears, read: pH 8.2, read-out: Minimum Inhibitory Concentration, PRD.
The mark [23] stands for this setting: pH 6.8, nutrient agar, 30° C., 48 hours, read-out: Minimum Inhibitory Concentration, Pa.
Setting [24] is: 48 h, pH 8.2, read-out: Minimum Inhibitory Concentration, SC.

In the case of `N#CSc1nsnc1-c1cccnc1` [Example XV, 4-(3-Pyridyl)-3-thiocyanato-1,2,5-thiadiazole], the MIC in assay [1] (pH 6.8, nutrient agar, 30° C., 48 hours, read-out: Minimum Inhibitory Concentration, Bs) amounted to 25 mg/L (≈ 113 µM); in [1] (pH 8.2, nutrient agar, 30° C., 48 hours, read-out: Minimum Inhibitory Concentration, Bs), 100 mg/L (≈ 454 µM); in assay [2] (setting [16]), 500 mg/L (≈ 2270 µM); in assay [2] (pH 6.8, nutrient agar, 30° C., 48 hours, read-out: Minimum Inhibitory Concentration, Ea), 250 mg/L (≈ 1130 µM); in assay [3] (setting [17]), 500 mg/L (≈ 2270 µM); in assay [3] (pH 6.8, nutrient agar, 30° C., 48 hours, read-out: Minimum Inhibitory Concentration, Ec) it was 250 mg/L (≈ 1130 µM). Further, the MIC in assay [4] (setting [18]) came out at 500 mg/L (≈ 2270 µM); in assay [4] (setting [19]), 100 mg/L (≈ 454 µM); in assay [5] (setting [20]), 500 mg/L (≈ 2270 µM); in [5] (pH 6.8, nutrient agar, 30° C., 48 hours, read-out: Minimum Inhibitory Concentration, Pv), 100 mg/L (≈ 454 µM); in assay [6] (setting [21]) it was 500 mg/L (≈ 2270 µM); in assay [6] (setting [22]) it was 500 mg/L (≈ 2270 µM). The MIC in [7] (48 h, pH 8.2, read-out: Minimum Inhibitory Concentration, Pa) came to 500 mg/L (≈ 2270 µM); in assay [7] (setting [23]), 500 mg/L (≈ 2270 µM); in assay [8] (setting [24]) it was 500 mg/L (≈ 2270 µM); in assay [8] (pH 6.8, nutrient agar, 30° C., 48 hours, read-out: Minimum Inhibitory Concentration, SC), 250 mg/L (≈ 1130 µM); in assay [9] (48 h, pH 6.8, read-out: Minimum Inhibitory Concentration, Sa), 50 mg/L (≈ 227 µM); in assay [10] it was 100 mg/L (≈ 454 µM). The MIC in [11] (48 h, pH 5.5, read-out: Minimum Inhibitory Concentration, Ca) turned out to be 100 mg/L (≈ 454 µM); in [12], 50 mg/L (≈ 227 µM); in assay [13] it was 50 mg/L (≈ 227 µM); in [14] (72 h, pH 5.5, read-out: Minimum Inhibitory Concentration, Fo) it was 50 mg/L (≈ 227 µM).
For `COC(=O)c1ccc(-c2nsnc2SCSC#N)cc1` [Example XXVIII], the MIC in assay [1] (48 h, pH 6.8, read-out: Minimum Inhibitory Concentration, Bs) was 500 mg/L (≈ 1550 µM); in [1] (48 h, pH 8.2, read-out: Minimum Inhibitory Concentration, Bs), 500 mg/L (≈ 1550 µM); in assay [2] (48 h, pH 6.8, read-out: Minimum Inhibitory Concentration, Ea), 500 mg/L (≈ 1550 µM); in assay [2] (setting [16]), over 500 mg/L; in assay [3] (48 h, pH 6.8, read-out: Minimum Inhibitory Concentration, Ec) it was 500 mg/L (≈ 1550 µM); in assay [3] (setting [17]), 500 mg/L (≈ 1550 µM). For the same molecule, the MIC in assay [4] (setting [18]) is over 500 mg/L; in [4] (setting [19]), 500 mg/L (≈ 1550 µM); in [5] (48 h, pH 6.8, read-out: Minimum Inhibitory Concentration, Pv), 500 mg/L (≈ 1550 µM); in assay [5] (setting [20]), over 500 mg/L; in [6] (setting [21]), 500 mg/L (≈ 1550 µM); in assay [6] (setting [22]), over 500 mg/L. The MIC in [7] (setting [23]) is 500 mg/L (≈ 1550 µM); in assay [7] (pH 8.2, nutrient agar, 30° C., 48 hours, read-out: Minimum Inhibitory Concentration, Pa), over 500 mg/L; in assay [8] (48 h, pH 6.8, read-out: Minimum Inhibitory Concentration, SC), 500 mg/L (≈ 1550 µM); in [8] (setting [24]), over 500 mg/L; in assay [9] (48 h, pH 8.2, read-out: Minimum Inhibitory Concentration, Sa) it was 500 mg/L (≈ 1550 µM); in assay [9] (pH 6.8, nutrient agar, 30° C., 48 hours, read-out: Minimum Inhibitory Concentration, Sa), 500 mg/L (≈ 1550 µM). The MIC in assay [10] was 100 mg/L (≈ 309 µM); in assay [11] (pH 5.5, malt yeast agar, 30° C., 48 hours for yeast, read-out: Minimum Inhibitory Concentration, Ca), 500 mg/L (≈ 1550 µM); in assay [12], 250 mg/L (≈ 773 µM); in [15], over 500 mg/L; in assay [13], 50 mg/L (≈ 155 µM); in [14] (pH 5.5, malt yeast agar, 30° C., 72 hours for fungi, read-out: Minimum Inhibitory Concentration, Fo), 250 mg/L (≈ 773 µM).
